# Reference: PubChem BioAssay AID328 (DTP/NCI, 2004)
# “And” between values parts separate entries of the source, which are not always exact repeats. Equal values may be shown once. Inconclusive results and toxic doses are left out.
# Test system: BDF1 mice, P388 leukemia ip, median survival T/C
# Experiment: NCI In Vivo Anticancer Drug Screen. Data for tumor model P388 Leukemia (intraperitoneal) in B6D2F1 (BDF1) mice
# Conditions: endpoint: median survival time, higher = longer survival
# In short: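 Survival ratio, drug arm over vehicle arm, in mice with a transplanted tumour.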
# [1] = dose: 50.0 mg/kg/injection, schedule: Q01DX009 (ip), vehicle: saline with Tween-80
# [2] = dose: 75.0 mg/kg/injection, schedule: Q01DX009 (ip), vehicle: saline with Tween-80
# [3] = dose: 100.0 mg/kg/injection, schedule: Q01DX009 (ip), vehicle: saline with Tween-80
# [4] = dose: 100.0 mg/kg/injection, schedule: Q04DX003 (ip), vehicle: saline with Tween-80
# [5] = dose: 200.0 mg/kg/injection, schedule: Q04DX003 (ip), vehicle: saline with Tween-80
# [6] = dose: 200.0 mg/kg/injection, schedule: Q01DX009 (ip), vehicle: saline with Tween-80
# [7] = dose: 400.0 mg/kg/injection, schedule: Q01DX009 (ip), vehicle: saline with Tween-80
# [8] = dose: 50.0 mg/kg/injection, schedule: Q01DX009 (ip), vehicle: water
# [9] = dose: 100.0 mg/kg/injection, schedule: Q01DX009 (ip), vehicle: water
# [10] = dose: 100.0 mg/kg/injection, schedule: Q04DX003 (ip), vehicle: water
# [11] = dose: 200.0 mg/kg/injection, schedule: Q01DX009 (ip), vehicle: water
# [12] = dose: 400.0 mg/kg/injection, schedule: Q01DX009 (ip), vehicle: water
# [13] = dose: 12.5 mg/kg/injection, schedule: Q01DX009 (ip), vehicle: saline with Tween-80
# [14] = dose: 25.0 mg/kg/injection, schedule: Q01DX009 (ip), vehicle: saline with Tween-80
# [15] = dose: 50.0 mg/kg/injection, schedule: Q04DX003 (ip), vehicle: saline with Tween-80
structure (smiles),measurement,setting,value
Cc1ccc(Nc2c3ccccc3nc3ccccc23)cc1,T/C,"dose: 100.0 mg/kg/injection, schedule: Q01DX001 (ip), vehicle: Klucel (hydroxypropylcellulose) (HPC)",109 % of control
same,T/C,"dose: 200.0 mg/kg/injection, schedule: Q01DX001 (ip), vehicle: Klucel (hydroxypropylcellulose) (HPC)",118 % of control
same,T/C,"dose: 400.0 mg/kg/injection, schedule: Q01DX001 (ip), vehicle: Klucel (hydroxypropylcellulose) (HPC)",113 % of control
CCOC(=O)CCC[P+](c1ccccc1)(c1ccccc1)c1ccccc1,T/C,"dose: 5.0 mg/kg/injection, schedule: Q01DX009 (ip), vehicle: saline with Tween-80",101 % of control
same,T/C,"dose: 10.0 mg/kg/injection, schedule: Q01DX009 (ip), vehicle: saline with Tween-80",100 % of control
same,T/C,"dose: 13.2 mg/kg/injection, schedule: Q01DX009 (ip), vehicle: saline with Tween-80",118 % of control
same,T/C,"dose: 20.0 mg/kg/injection, schedule: Q01DX009 (ip), vehicle: saline with Tween-80",101 % of control and 122 % of control
same,T/C,"dose: 30.0 mg/kg/injection, schedule: Q01DX009 (ip), vehicle: saline with Tween-80",118 % of control
same,T/C,[1],113 % of control
same,T/C,[2],152 % of control
same,T/C,[3],118 % of control
same,T/C,[4],110 % of control
same,T/C,"dose: 160.0 mg/kg/injection, schedule: Q01DX009 (ip), vehicle: saline with Tween-80",121 % of control
same,T/C,[5],115 % of control
O=C1c2ccccc2-c2c(Br)c3ccccc3c(=O)n21,T/C,[1],105 % of control
same,T/C,[3],105 % of control
same,T/C,[6],117 % of control
same,T/C,[7],101 % of control
CCOC(=O)CNC(=O)N(CC)C12CC3CC(CC(C3)C1)C2,T/C,"dose: 100.0 mg/kg/injection, schedule: Q01DX009 (ip), vehicle: Klucel (hydroxypropylcellulose) (HPC)",94 % of control
same,T/C,"dose: 130.0 mg/kg/injection, schedule: Q01DX009 (ip), vehicle: Klucel (hydroxypropylcellulose) (HPC)",111 % of control
same,T/C,"dose: 200.0 mg/kg/injection, schedule: Q01DX009 (ip), vehicle: Klucel (hydroxypropylcellulose) (HPC)",100 % of control
same,T/C,"dose: 300.0 mg/kg/injection, schedule: Q01DX009 (ip), vehicle: Klucel (hydroxypropylcellulose) (HPC)",109 % of control
same,T/C,"dose: 400.0 mg/kg/injection, schedule: Q01DX009 (ip), vehicle: Klucel (hydroxypropylcellulose) (HPC)",122 % of control
NC(=O)Nc1cc(NC(N)=O)cc(N(CCO)CCO)c1,T/C,[8],94 % of control
same,T/C,[9],102 % of control
same,T/C,[10],118 % of control
same,T/C,[11],96 % of control
same,T/C,"dose: 200.0 mg/kg/injection, schedule: Q04DX003 (ip), vehicle: water",102 % of control
same,T/C,[12],100 % of control
same,T/C,"dose: 400.0 mg/kg/injection, schedule: Q04DX003 (ip), vehicle: water",102 % of control
CCC/C(C)=N/Nc1ccccn1,T/C,"dose: 12.5 mg/kg/injection, schedule: Q01DX009 (ip), vehicle: Klucel (hydroxypropylcellulose) (HPC)",105 % of control
same,T/C,[13],95 % of control
same,T/C,"dose: 25.0 mg/kg/injection, schedule: Q01DX009 (ip), vehicle: Klucel (hydroxypropylcellulose) (HPC)",95 % of control and 110 % of control
same,T/C,[14],100 % of control
same,T/C,"dose: 50.0 mg/kg/injection, schedule: Q01DX009 (ip), vehicle: Klucel (hydroxypropylcellulose) (HPC)",100 % of control and 120 % of control
same,T/C,[1],91 % of control and 118 % of control
same,T/C,"dose: 50.0 mg/kg/injection, schedule: Q01DX009 (ip), vehicle: saline",120 % of control
CS(=O)c1ncc2cnccn12 (centres undefined),T/C,"dose: 25.0 mg/kg/injection, schedule: Q04DX003 (ip), vehicle: water",108 % of control
same,T/C,"dose: 50.0 mg/kg/injection, schedule: Q04DX003 (ip), vehicle: water",100 % of control
same,T/C,[9],104 % of control
same,T/C,[10],108 % of control
same,T/C,[11],106 % of control
CC(=O)Nc1nc(C)c(CCC#N)c(=O)[nH]1,T/C,"dose: 100.0 mg/kg/injection, schedule: Q04DX003 (ip), vehicle: saline",86 % of control
same,T/C,"dose: 200.0 mg/kg/injection, schedule: Q04DX003 (ip), vehicle: saline",90 % of control
same,T/C,"dose: 400.0 mg/kg/injection, schedule: Q04DX003 (ip), vehicle: saline",86 % of control
CCCCCCCCCC(=O)NC(CN1CCOCC1)C(=O)c1ccccc1 (centres undefined),T/C,"dose: 12.5 mg/kg/injection, schedule: Q04DX003 (ip), vehicle: saline with Tween-80",95 % of control
same,T/C,"dose: 25.0 mg/kg/injection, schedule: Q04DX003 (ip), vehicle: saline with Tween-80",98 % of control
same,T/C,[15],100 % of control
CCc1n[nH]c(=O)c2c3ccccc3nn12,T/C,"dose: 100.0 mg/kg/injection, schedule: Q01DX001 (ip), vehicle: saline with Tween-80",96 % of control
same,T/C,"dose: 200.0 mg/kg/injection, schedule: Q01DX001 (ip), vehicle: saline with Tween-80",105 % of control
same,T/C,"dose: 400.0 mg/kg/injection, schedule: Q01DX001 (ip), vehicle: saline with Tween-80",100 % of control
Cc1ccc2c(C)c3c(ccc4ccccc43)c[n+]2c1,T/C,"dose: 1.25 mg/kg/injection, schedule: Q01DX009 (ip), vehicle: Klucel (hydroxypropylcellulose) (HPC)",115 % of control
same,T/C,"dose: 1.25 mg/kg/injection, schedule: Q01DX009 (ip), vehicle: saline",115 % of control
same,T/C,"dose: 2.5 mg/kg/injection, schedule: Q01DX009 (ip), vehicle: Klucel (hydroxypropylcellulose) (HPC)",120 % of control
same,T/C,"dose: 2.5 mg/kg/injection, schedule: Q01DX009 (ip), vehicle: saline",100 % of control
same,T/C,"dose: 2.5 mg/kg/injection, schedule: Q04DX003 (ip), vehicle: saline",100 % of control
same,T/C,"dose: 5.0 mg/kg/injection, schedule: Q04DX003 (ip), vehicle: saline",104 % of control
same,T/C,"dose: 10.0 mg/kg/injection, schedule: Q01DX009 (ip), vehicle: saline",90 % of control
same,T/C,"dose: 10.0 mg/kg/injection, schedule: Q04DX003 (ip), vehicle: saline",116 % of control
same,T/C,"dose: 20.0 mg/kg/injection, schedule: Q04DX003 (ip), vehicle: saline",120 % of control
FC(F)c1nc2nc(Cl)c(Cl)nc2[nH]1,T/C,[13],110 % of control
same,T/C,[1],120 % of control
same,T/C,[15],100 % of control
same,T/C,[2],103 % of control
same,T/C,[4],109 % of control
Oc1c(Cl)cc(Cl)cc1/C=N/c1nc(-c2ccc(Cl)cc2)cs1,T/C,"dose: 0.78 mg/kg/injection, schedule: Q01DX009 (ip), vehicle: saline with Tween-80",100 % of control
same,T/C,"dose: 1.56 mg/kg/injection, schedule: Q01DX009 (ip), vehicle: saline with Tween-80",96 % of control
same,T/C,"dose: 3.12 mg/kg/injection, schedule: Q01DX009 (ip), vehicle: saline with Tween-80",105 % of control
CC(=O)O/N=C(/C)c1ccccc1,T/C,"dose: 25.0 mg/kg/injection, schedule: Q04DX003 (ip), vehicle: saline sonified",100 % of control
same,T/C,"dose: 50.0 mg/kg/injection, schedule: Q04DX003 (ip), vehicle: saline sonified",100 % of control
same,T/C,"dose: 100.0 mg/kg/injection, schedule: Q04DX003 (ip), vehicle: saline sonified",100 % of control
COC1(c2cccs2)OC1(C)C (centres undefined),T/C,[3],95 % of control
same,T/C,[4],100 % of control
same,T/C,[6],95 % of control
same,T/C,[5],91 % of control
same,T/C,[7],95 % of control
same,T/C,"dose: 400.0 mg/kg/injection, schedule: Q04DX003 (ip), vehicle: saline with Tween-80",104 % of control
O=C1C(=O)c2ccccc2-c2ccccc21.O=C1C(=O)c2ccccc2-c2ccccc21.[Hg],T/C,"dose: 1.5 mg/kg/injection, schedule: Q01DX009 (ip), vehicle: saline with Tween-80",110 % of control
same,T/C,"dose: 2.6 mg/kg/injection, schedule: Q01DX009 (ip), vehicle: saline with Tween-80",100 % of control
same,T/C,"dose: 3.0 mg/kg/injection, schedule: Q01DX009 (ip), vehicle: saline with Tween-80",112 % of control
same,T/C,"dose: 4.0 mg/kg/injection, schedule: Q01DX009 (ip), vehicle: saline with Tween-80",110 % of control
same,T/C,"dose: 6.0 mg/kg/injection, schedule: Q01DX009 (ip), vehicle: saline with Tween-80",116 % of control
same,T/C,"dose: 9.0 mg/kg/injection, schedule: Q01DX009 (ip), vehicle: saline with Tween-80",110 % of control
COc1ccc(/C(=C\S(C)=O)c2cccs2)cc1 (centres undefined),T/C,[1],105 % of control
same,T/C,[3],107 % of control
same,T/C,[6],100 % of control
O=C(NC(=O)c1c(F)cccc1F)Nc1nc2cc(Cl)ccc2o1,T/C,[14],96 % of control
same,T/C,[1],96 % of control
same,T/C,[3],90 % of control
CCOC(CN(Cc1ccc(OC)c(OCc2ccccc2)c1)S(=O)(=O)c1ccc(C)cc1)OCC,T/C,"dose: 25.0 mg/kg/injection, schedule: Q01DX009 (ip), vehicle: water",89 % of control
same,T/C,[8],99 % of control
same,T/C,[9],92 % of control
same,T/C,[11],112 % of control
same,T/C,[12],99 % of control
